The test system of test [1] is Human T lymphocytic leukemia cell line (Jurkat). The experiment in a line: Inhibition of Jurkat cell proliferation (CellTiter luminescent viability). The format is cell-based. The note with it: 96 hours, read-out: Inhibitory activity (IC50, nM) on tumor cell proliferation, Jurkat.
Test [2] relates to Human large cell immunoblastic lymphoma cell line SR. The experiment in a line: Inhibition of SR cell proliferation (CellTiter luminescent viability). The format is cell-based. The note with it: 96 hours; for IC50: Table IA1, IRAK4 inhibitor-based, read-out: Inhibitory activity (IC50, nM) on tumor cell proliferation, SR; for inhibition at 0.01 µM / inhibition at 0.5 µM: Homo sapiens, Table IB2, ALK inhibitor-based; for inhibition at 0.01 µM: 10 nM, read-out: Inhibition Rate at 10 nM (%); for inhibition at 0.5 µM: 500 nM, read-out: Inhibition Rate at 500 nM (%). A digest of the protocol: (§1)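 Cells are seeded in 96-well plates, cultured at 37 °C, 5% CO2, and treated next day with 5-fold serial compound dilutions (stock series from 2000 μM; 0.5 μL into 100 μL medium). Viability is read by CellTiter-Meiluncell luminescence after the set exposure, and IC50 is taken from growth-inhibition curves.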

The test system of test [3] is Human Multiple myeloma cell line (MM.1S). The experiment in a line: Inhibition of MM.1S cell proliferation (CellTiter luminescent viability). The note with it: 96 hours, read-out: Inhibitory activity (IC50, nM) on tumor cell proliferation, MM.1S. The format is cell-based. The method, boiled down: as §1
The target in the next test is T1, IRAK4 (Homo sapiens, UniProt Q9NWZ3).
T1 construct: expression of target proteins in cells; endogenous in cells
T1 sequence (Q9NWZ3 1-460): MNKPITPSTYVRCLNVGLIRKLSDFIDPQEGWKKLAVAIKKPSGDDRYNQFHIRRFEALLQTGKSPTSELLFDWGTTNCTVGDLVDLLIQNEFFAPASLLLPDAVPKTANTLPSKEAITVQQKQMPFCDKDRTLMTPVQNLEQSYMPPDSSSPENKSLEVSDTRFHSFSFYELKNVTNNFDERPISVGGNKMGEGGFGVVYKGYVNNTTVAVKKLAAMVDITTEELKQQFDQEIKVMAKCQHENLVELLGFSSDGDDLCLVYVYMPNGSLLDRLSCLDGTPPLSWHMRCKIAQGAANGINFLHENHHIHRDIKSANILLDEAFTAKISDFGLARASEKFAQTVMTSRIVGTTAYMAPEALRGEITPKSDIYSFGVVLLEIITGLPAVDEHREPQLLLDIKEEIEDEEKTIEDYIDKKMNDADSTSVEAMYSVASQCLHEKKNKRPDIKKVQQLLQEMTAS
The experiment in a line: Western blot degradation of IRAK4. The note with it: hPBMC Cell; 24 hours. Type of test: cell-based. A digest of the protocol: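 Immunoblot of drug-treated versus DMSO-treated cell lysates, with densitometric quantification. Values: DC50 (50% band loss, fitted) and loading-control-normalised % remaining or degradation.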
On the technique in general: A western blot detects proteins with antibodies after separation by electrophoresis.

Test [4] has as its system Human gastric cancer cell line MGC803. The experiment in a line: Inhibition of MGC803 tumor cell proliferation (CellTiter luminescent viability). Type of test: cell-based. The note with it: MGC803, 96 hours, read-out: Inhibitory activity (IC50, nM) on tumor cell proliferation, MGC803. Here is the method: (§2) The tumor cells used herein were cultured in a cell culture medium listed in table 3 at 37 °C in an incubator with 5% CO2. Prior to experimentation, all cell lines used were correctly identified by STR profiling, and tested negative for mycoplasma contamination using a mycoplasma detection kit through routine screenings.
(§3) The IC50 values of the compounds of the present disclosure (including the compounds in Table 1, Table 2, and Examples 1-468) were determined using the CellTiter-Meiluncell Luminescent Cell Viability Assay Kit from Dalian Meilun Biotech Co., Ltd. The detailed procedure is as follows: Tumor cells were seeded in 96-well cell culture plates at the densities specified in Table 4. On the following day, the test compounds of the present disclosure were subjected to serial dilution. The dilution can be performed according to one of the following two methods: • (1) The first dilution method: The test compounds of the present disclosure (including the compounds in Table 1, Table 2, and Examples 1-468) were subjected to 5-fold serial dilutions starting from a highest concentration of 2000 μM, resulting in a total of 9 concentrations from high to low (2000, 400, 80, 16, 3.2, 0.64, 0.128, 0.0256, 0.00512 μM). Subsequently, 0.5 μL of the test compound dilution was transferred into the 96-well plate containing the cells, with each well containing 100 μL of cell culture medium. […] Into the 96-well plate, the diluted test compounds and corresponding detection reagents were added, resulting in final test compound concentrations of 500 nM and 10 nM, respectively. The experimental procedure is described below using the diluted 2 μM test compound as an example.
(§4) 0.5 μL of the aforementioned diluted compound of the present disclosure (including the compounds in Table 1, Table 2, and Examples 1-468) was added to the seeded cells in 100 μL of medium, yielding a final test compound concentration of 10 nM. After the cells were treated with the compounds of the present disclosure for a specified period, the cell viability assay reagent was added to the culture medium according to the kit's instructions to determine cell viability. […] All controls were treated using the same procedure as the compounds of the present disclosure. The growth inhibition curves for the compounds of the present disclosure were plotted using Prism GraphPad software, and the IC50 values were calculated therefrom.

For another test, the system named is JEKO-1. The experiment in a line: Inhibition of JEKO-1 cell proliferation (CellTiter luminescent viability). Type of test: cell-based, human. The note with it: JEKO-1, 96 hours, read-out: Inhibitory activity (IC50, nM) on tumor cell proliferation, JEKO-1. Here is the method: as §2, §3, §4
Test [5] deals with Human myeloid monocytic leukemia cell line (MV-4-11). The experiment in a line: Inhibition of MV-4-11 cell proliferation (CellTiter luminescent viability). The format is cell-based. The note with it: Homo sapiens, MV4-11, 96 hours; for inhibition at 0.01 µM: MV-4-11, 10 nM, read-out: Inhibition Rate at 10 nM (%); for inhibition at 0.5 µM: MV-4-11, 500 nM, read-out: Inhibition Rate at 500 nM (%). A digest of the protocol:
as §1

For test [6], the system named is Human non-small cell lung cancer cell line NCI-H2228. Kind of test: Inhibition of H2228 cell proliferation (CellTiter luminescent viability). The note with it: Table IB2, ALK inhibitor-based, 96 hours; for inhibition at 0.01 µM: H2228, 10 nM, read-out: Inhibition Rate at 10 nM (%); for inhibition at 0.5 µM: H2228, 500 nM, read-out: Inhibition Rate at 500 nM (%). Here is the method:
as §2, §3, §4

In test [7] the test system is Human non-small cell lung cancer cell line NCI-H1975. The experiment in a line: Inhibition of H1975 cell proliferation (CellTiter luminescent viability). The note with it: Table IC1, BTK inhibitor-based; H1975, 96 hours; read-out: Inhibitory activity (IC50, nM) on tumor cell proliferation, H1975. The format is cell-based. Here is the method: as §2, §3, §4
Test [8] is described as follows: Inhibition of RPMI-8226 cell proliferation (CellTiter luminescent viability). Type of test: cell-based. The note with it: Homo sapiens; Table IA4, IRAK4 inhibitor-based; RPMI-8226, 10 nM, 96 hours; read-out: Inhibition Rate at 10 nM (%).
Test [9] deals with Human B-Cell Lymphoma Cells (RPMI-8226). The test is described as above. The format is cell-based. The note with it: Table IA4, IRAK4 inhibitor-based, RPMI-8226, 500 nM, 96 hours, read-out: Inhibition Rate at 500 nM (%).
[10] abbreviates: Table IA1, IRAK4 inhibitor-based.
Setting [11] is: Table IA1, IRAK4 inhibitor-based compounds.
[12] abbreviates: Table IA3, IRAK4 inhibitor-based.

Seven molecules from patent US20260364184A1, “COMPOUND BASED ON OXOISOINDOLINYL-SUBSTITUTED TETRAHYDROPYRIMIDINE-DIONE AND USE THEREOF” (GLUETACS THERAPEUTICS (SHANGHAI) CO., LTD., priority 2023, published 2026) can be followed below.

Like-named read-outs stand apart in the source and are kept apart here.

With `O=C1CCN(N2Cc3cc(CN4CCC(N5CCN(c6ccc7c(c6)nc(NC(=O)c6cccc(C(F)(F)F)c6)n7[C@H]6CC[C@@H](CO)CC6)CC5)CC4)ccc3C2=O)C(=O)N1` [GT-05019, N-(5-(4-(1-((2-(2,4-dioxotetrahydropyrimidin-1(2H)-yl)-1-oxoisoindolin-5-yl)methyl)piperidin-4-yl)piperazin-1-yl)-1-((1s,4s)-4-(hydroxymethyl)cyclohexyl)-1H-benzo[d]imidazol-2-yl)-3-(trifluoromethyl)benzamide], the IC50 (in [1] (setting [10]); in test [2]; in [3] (setting [10]); in test [4] (setting [11]); with JEKO-1 (setting [10])) was 500 to 1000 nM in each case. The “Degradation of substrate protein IRAK4 (substrate protein remaining %)” value on IRAK4 was “A (0%≤substrate protein remaining %≤80%)”.
A word on the inhibition: it is how much of the control response was suppressed. As for `COc1cc(N2CCC(N3CCN(Cc4ccc5c(c4)CN(N4CCC(=O)NC4=O)C5=O)CC3)CC2)ccc1Nc1ncc(Cl)c(Nc2ccccc2P(C)(C)=O)n1` [GT-08146, 1-(5-((4-(1-(4-((5-chloro-4-((2-(dimethylphosphoryl)phenyl)amino)pyrimidin-2-yl)amino)-3-methoxyphenyl)piperidin-4-yl)piperazin-1-yl)methyl)-1-oxoisoindolin-2-yl)dihydropyrimidine-2,4 (1H,3H)-dione], the inhibition at 0.01 µM in [5] (Table IB2, ALK inhibitor-based) fell in the range of 15 to 20%; in test [2], 45 to 55%; in test [6], 20 to 30%. In addition, the inhibition at 0.5 µM fell in the range of 90 to 100% in [5] (Table IB2, ALK inhibitor-based); 90 to 100% in test [2]; 60 to 80% in [6].
`COc1cc(N2CCC(N3CCN(Cc4ccc5c(c4)C(=O)N(N4CCC(=O)NC4=O)C5=O)CC3)CC2)ccc1Nc1ncc(Cl)c(Nc2ccccc2P(C)(C)=O)n1` [GT-08147, 5-((4-(1-(4-((5-chloro-4-((2-(dimethylphosphoryl)phenyl)amino)pyrimidin-2-yl)amino)-3-methoxyphenyl)piperidin-4-yl)piperazin-1-yl)methyl)-2-(2,4-dioxotetrahydropyrimidin-1(2H)-yl)isoindoline-1,3-dione]: the inhibition at 0.01 µM was in the range of 20 to 30% in test [5] (Table IB2, ALK inhibitor-based); 10 to 15% in [2]; 20 to 30% in test [6]. The inhibition at 0.5 µM in test [5] (Table IB2, ALK inhibitor-based) lay in the range of 60 to 80%; in test [2] it was 90 to 100%; in test [6] it was 45 to 55%.
As for `COc1cc(N2CCC(N(C)Cc3ccc4c(c3)CN(N3CCC(=O)NC3=O)C4=O)CC2)ccc1Nc1ncc(Cl)c(Nc2ccccc2P(C)(C)=O)n1` [GT-08148, 1-(5-(((1-(4-((5-chloro-4-((2-(dimethylphosphoryl)phenyl)amino)pyrimidin-2-yl)amino)-3-methoxyphenyl)piperidin-4-yl)(methyl)amino)methyl)-1-oxoisoindolin-2-yl)dihydropyrimidine-2,4 (1H,3H)-dione], the inhibition at 0.01 µM in test [5] (Table IB2, ALK inhibitor-based) lay within 5 to 10%; in test [2] it was 30 to 45%; in [6], 15 to 20%. Further, the inhibition at 0.5 µM in test [5] (Table IB2, ALK inhibitor-based) is 60 to 80%; in [2] it was 90 to 100%; in test [6], 45 to 55%.
With `C=CC(=O)N1CCC(c2ccc(C(N)=O)c(-c3ccc(Oc4ccccc4)cc3)n2)CC1` [Orelabrutinib, reference compound], the IC50 is more than 10000 nM in test [1] (Table IC1, BTK inhibitor-based); more than 10000 nM in [7]; more than 10000 nM in [3] (Table IC1, BTK inhibitor-based); more than 10000 nM in test [4] (Table IC1, BTK inhibitor-based); more than 10000 nM in the test on JEKO-1 (Table IC1, BTK inhibitor-based).
On to `CC[C@@H]1[C@H](F)C(=O)N[C@@H]1COc1nccc2cc(C(N)=O)c(OC)cc12` [PF06650833, PF-06650833, reference compound], for which the inhibition at 0.01 µM in test [5] (setting [12]) was in the range of 20 to 36%; in test [8], 0 to 5%. Also, the inhibition at 0.5 µM in [5] (setting [12]) was 20 to 36%; in test [9], 10 to 15%. Moreover, the IC50 is 5000 to 10000 nM in test [1] (setting [10]); 1000 to 5000 nM in test [2]; more than 10000 nM in [3] (setting [10]); 5000 to 10000 nM in test [4] (setting [11]); 500 to 1000 nM with JEKO-1 (setting [10]).
On to `C=CC(=O)N1CCC[C@@H](n2nc(-c3ccc(Oc4ccccc4)cc3)c3c(N)ncnc32)C1` [ibrutinib, Ibrutinib, reference compound], for which the IC50 was more than 10000 nM in test [1] (Table IC1, BTK inhibitor-based); 1000 to 5000 nM in test [7]; more than 10000 nM in test [3] (Table IC1, BTK inhibitor-based); more than 10000 nM in test [4] (Table IC1, BTK inhibitor-based); more than 10000 nM in the test on JEKO-1 (Table IC1, BTK inhibitor-based).
